# Columns and labels:
# Type in all cases: cell-based
# [1] = target: T1, xCT (system xc–, cystine-glutamate exchanger) (Rattus norvegicus, UniProt A0A8I6AB70); test: inhibition of [3H]-L-glutamate uptake in Na+-free buffer, CHO-xCT cells, concentration-response
# T1 construct: gene Slc7a11; with 4F2hc (Slc3a2)
# [2] = target: T1, xCT (system xc–, cystine-glutamate exchanger); test: radiolabeled substrate uptake in Na+-free buffer, transfected versus non-transfected CHO cells
# [3] = target: T2, xCT (system xc–, cystine-glutamate exchanger) (Mus musculus, UniProt Q9WTR6); test: radiolabeled substrate uptake in Na+-free buffer, knockout control
# T2 construct: gene Slc7a11; native exchanger in cultured astrocytes and spinal cord crude synaptosomes, wild-type versus xCT–/–; with 4F2hc (Slc3a2)
# T2 sequence (Q9WTR6 1-502): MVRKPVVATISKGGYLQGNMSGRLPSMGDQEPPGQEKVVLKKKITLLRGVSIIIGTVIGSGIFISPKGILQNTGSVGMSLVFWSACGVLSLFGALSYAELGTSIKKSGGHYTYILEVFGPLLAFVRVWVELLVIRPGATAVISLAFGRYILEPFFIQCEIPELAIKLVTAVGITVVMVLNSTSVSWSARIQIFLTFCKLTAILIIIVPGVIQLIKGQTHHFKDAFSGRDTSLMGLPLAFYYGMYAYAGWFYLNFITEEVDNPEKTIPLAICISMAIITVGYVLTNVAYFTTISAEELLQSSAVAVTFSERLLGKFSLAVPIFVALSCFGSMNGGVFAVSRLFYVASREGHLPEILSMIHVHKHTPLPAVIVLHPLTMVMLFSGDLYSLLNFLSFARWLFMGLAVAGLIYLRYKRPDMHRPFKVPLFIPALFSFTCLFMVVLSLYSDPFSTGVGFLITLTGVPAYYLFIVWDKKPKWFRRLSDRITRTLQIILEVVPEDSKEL
# T2 sequence (P10852 1-526 partner): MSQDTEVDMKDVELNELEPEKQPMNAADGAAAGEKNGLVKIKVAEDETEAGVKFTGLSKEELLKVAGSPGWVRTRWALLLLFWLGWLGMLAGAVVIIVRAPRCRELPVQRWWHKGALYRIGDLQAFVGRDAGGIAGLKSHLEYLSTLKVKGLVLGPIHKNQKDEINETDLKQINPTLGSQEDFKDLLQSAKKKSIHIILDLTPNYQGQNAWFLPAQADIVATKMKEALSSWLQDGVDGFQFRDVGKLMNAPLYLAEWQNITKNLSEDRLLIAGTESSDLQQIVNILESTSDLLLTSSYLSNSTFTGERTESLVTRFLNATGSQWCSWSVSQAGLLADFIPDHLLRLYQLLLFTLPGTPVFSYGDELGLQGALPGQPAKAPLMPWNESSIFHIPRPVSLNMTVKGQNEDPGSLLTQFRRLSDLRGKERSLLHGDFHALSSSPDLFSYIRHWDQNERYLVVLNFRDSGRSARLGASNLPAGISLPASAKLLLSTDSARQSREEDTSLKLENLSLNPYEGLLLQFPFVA
# T1 sequence (A0A8I6AB70 1-502): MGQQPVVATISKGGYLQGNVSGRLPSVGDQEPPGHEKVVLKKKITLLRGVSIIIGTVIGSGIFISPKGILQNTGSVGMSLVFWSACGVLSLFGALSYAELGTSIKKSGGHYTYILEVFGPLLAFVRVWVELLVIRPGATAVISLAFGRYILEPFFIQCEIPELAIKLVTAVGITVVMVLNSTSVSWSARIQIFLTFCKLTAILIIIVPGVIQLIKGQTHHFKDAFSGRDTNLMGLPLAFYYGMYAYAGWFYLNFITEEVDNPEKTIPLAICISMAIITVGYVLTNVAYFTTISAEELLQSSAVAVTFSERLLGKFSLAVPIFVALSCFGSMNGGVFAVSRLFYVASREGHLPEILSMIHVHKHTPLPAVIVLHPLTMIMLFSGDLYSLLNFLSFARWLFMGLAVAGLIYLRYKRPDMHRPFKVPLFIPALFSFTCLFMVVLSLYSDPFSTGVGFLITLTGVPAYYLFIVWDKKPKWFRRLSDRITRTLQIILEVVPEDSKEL
compound,measurement,setting,value
N[C@@H](CCS(=O)(=O)O)C(=O)O [HCA],IC50,[1],5.75 µM
N[C@@H](CCC(=O)O)C(=O)O [L-glutamate],"radiolabeled substrate uptake in Na+-free buffer, transfected versus non-transfe",[2],[^3H]-L-glutamate uptake measured in the transfected cells was significantly higher as compared to non-transfected cells
same,"radiolabeled substrate uptake in Na+-free buffer, knockout control",[3],the uptake of [^3H]-L-glutamate was barely detectable in astrocytes derived from the transgenic mice lacking xCT
